PubChem BioAssay AID234 (DTP/NCI, 2004)
Values joined by “and” are separate entries in the source; they are usually repeats but may differ in a detail not shown here. Identical values can stand only once. Results filed as inconclusive are left out.

Test system: C3AKF1 mice, hamster liver cystadenocarcinoma s.c., tumor weight T/C
Experiment: NCI In Vivo Anticancer Drug Screen. Data for tumor model Cystadenocarcinoma, Liver (No. 1) (Hamster) (subcutaneous) in C3AKF1 (CHKRF1) mice
Details: endpoint: mean tumor weight, schedule: Q01DX010 (ip), higher = larger tumour
Procedure: The antitumor activity of compounds was measured in mice bearing transplantable tumors. Survival or tumor size were measured and the results are expressed as the measurement made in the treated group (T) divided by the measurement made in the vehicle treated control group (C). The tumor model used in this assay is Cystadenocarcinoma, Liver (No. 1) (Hamster) (subcutaneous) in C3AKF1 (CHKRF1) mice

[1] = dose: 15.0 mg/kg/injection, vehicle: carboxymethylcellulose (CMC)
[2] = dose: 30.0 mg/kg/injection, vehicle: carboxymethylcellulose (CMC)
[3] = dose: 2.0 mg/kg/injection, vehicle: carboxymethylcellulose (CMC)
[4] = dose: 6.0 mg/kg/injection, vehicle: carboxymethylcellulose (CMC)
[5] = dose: 12.0 mg/kg/injection, vehicle: carboxymethylcellulose (CMC)
[6] = dose: 25.0 mg/kg/injection, vehicle: carboxymethylcellulose (CMC)
[7] = dose: 20.0 mg/kg/injection, vehicle: carboxymethylcellulose (CMC)
[8] = dose: 40.0 mg/kg/injection, vehicle: carboxymethylcellulose (CMC)
[9] = dose: 3.0 mg/kg/injection, vehicle: carboxymethylcellulose (CMC)
[10] = dose: 50.0 mg/kg/injection, vehicle: carboxymethylcellulose (CMC)
[11] = dose: 100.0 mg/kg/injection, vehicle: carboxymethylcellulose (CMC)
[12] = dose: 200.0 mg/kg/injection, vehicle: carboxymethylcellulose (CMC)
[13] = dose: 45.0 mg/kg/injection, vehicle: carboxymethylcellulose (CMC)
[14] = dose: 20.0 mg/kg/injection, vehicle: saline
[15] = dose: 1.0 mg/kg/injection, vehicle: carboxymethylcellulose (CMC)
[16] = dose: 0.25 mg/kg/injection, vehicle: saline

`CCC(=O)NC1=C(N2CC2)C(=O)C(NC(=O)CC)=C(N2CC2)C1=O` was tested, and the T/C (dose: 0.6 mg/kg/injection, vehicle: saline) was 97 % of control and the T/C (dose: 1.2 mg/kg/injection, vehicle: saline) was 76 % of control.

For `Cc1ccc(N2CCN(CCCN3CCN(c4ccc(Cl)cc4)CC3)CC2)cc1`, the T/C (dose: 7.5 mg/kg/injection, vehicle: carboxymethylcellulose (CMC)) was 94 % of control, the T/C [1] was 98 % of control and the T/C [2] was 94 % of control.

In the case of `CCC1=C(c2cc(Cl)c3ccccc3c2OCC(=O)O)OC(CC)(C(=O)c2cc(Cl)c3ccccc3c2OCC(=O)O)CC1` (centres undefined), the T/C [2] is reported as 90 % of control, the T/C (dose: 60.0 mg/kg/injection, vehicle: carboxymethylcellulose (CMC)) is reported as 87 % of control and the T/C (dose: 120.0 mg/kg/injection, vehicle: carboxymethylcellulose (CMC)) is reported as 64 % of control.

In the case of `O=C(C[N+]12CN3CN(CN(C3)C1)C2)c1ccc(Cl)cc1`, the T/C (dose: 37.5 mg/kg/injection, vehicle: carboxymethylcellulose (CMC)) is reported as 99 % of control, the T/C (dose: 75.0 mg/kg/injection, vehicle: carboxymethylcellulose (CMC)) is reported as 109 % of control and the T/C (dose: 150.0 mg/kg/injection, vehicle: carboxymethylcellulose (CMC)) is reported as 90 % of control. For the same molecule, the T/C (dose: 300.0 mg/kg/injection, vehicle: carboxymethylcellulose (CMC)) was 69 % of control.

With `CCCCCCCCCCCCn1c(C)nc2ccccc21` the T/C [3] was 79 % of control and the T/C (dose: 8.0 mg/kg/injection, vehicle: carboxymethylcellulose (CMC)) was 62 % of control.

For `O=C(NO)c1ccncc1`, the T/C (dose: 250.0 mg/kg/injection, vehicle: saline) was 80 % of control, the T/C (dose: 500.0 mg/kg/injection, vehicle: saline) was 78 % of control and the T/C (dose: 750.0 mg/kg/injection, vehicle: saline) was 76 % of control.

For `Nc1nc(SCc2ccccc2Cl)c2ncn(C3OC(CO)C(O)C3O)c2n1` (centres undefined), the T/C [4] was 104 % of control, the T/C [5] was 85 % of control and the T/C [6] was 112 % of control.

With `CCCC(Sc1nc(N)nc2nc[nH]c12)C(=O)O` (centres undefined) the T/C (dose: 10.0 mg/kg/injection, vehicle: carboxymethylcellulose (CMC)) was 66 % of control, the T/C [7] was 103 % of control and the T/C [8] was 123 % of control. The T/C (dose: 80.0 mg/kg/injection, vehicle: carboxymethylcellulose (CMC)) was 116 % of control and 118 % of control and the T/C (dose: 160.0 mg/kg/injection, vehicle: carboxymethylcellulose (CMC)) was 76 % of control.

`Cc1c2ccc3ccccc3c2c[n+]2ccccc12` was tested, and the T/C [9] was 153 % of control and the T/C [5] was 89 % of control.

In the case of `NC(N)=N/N=C/C=N/N=C(N)N`, the T/C [2] is reported as 98 % of control.

In the case of `O=[n+]1c2c(n([O-])c3ccccc31)-c1cccc3cccc-2c13`, the T/C [6] is reported as 64 % of control, the T/C [10] is reported as 74 % of control and the T/C [11] is reported as 48 % of control.

With `ClCCn1cnc2c(SCc3ccccc3)ncnc21` the T/C [10] was 75 % of control, the T/C [11] was 84 % of control and 97 % of control and the T/C [12] was 86 % of control and 89 % of control. For the same molecule, the T/C (dose: 400.0 mg/kg/injection, vehicle: carboxymethylcellulose (CMC)) was 68 % of control and 80 % of control and the T/C (dose: 600.0 mg/kg/injection, vehicle: carboxymethylcellulose (CMC)) was 73 % of control.

With `O=C(COc1cc(Cl)c(Cl)cc1Cl)OCCOc1cc(Cl)c(Cl)cc1Cl` the T/C (dose: 11.25 mg/kg/injection, vehicle: carboxymethylcellulose (CMC)) was 88 % of control, the T/C (dose: 22.5 mg/kg/injection, vehicle: carboxymethylcellulose (CMC)) was 102 % of control and the T/C [13] was 87 % of control.

In the case of `CS(=O)(=O)OCC(=O)NCCNC(=O)COS(C)(=O)=O`, the T/C [7] is reported as 105 % of control and the T/C [8] is reported as 100 % of control.

With `CCN(CC)CCNc1ccc([N+](=O)[O-])c2sc3ccccc3c(=O)c12` the T/C [14] was 98 % of control and the T/C (dose: 40.0 mg/kg/injection, vehicle: saline) was 70 % of control.

`CC1CC(C)OS(=O)O1` (centres undefined) was tested, and the T/C (dose: 44.0 mg/kg/injection, vehicle: saline) was 65 % of control and the T/C (dose: 66.0 mg/kg/injection, vehicle: saline) was 81 % of control.

In the case of `O=C(Nc1ccc(C2=NCCN2)cc1)c1ccc(C(=O)Nc2ccc(C3=NCCN3)cc2)c(Cl)c1`, the T/C (dose: 5.0 mg/kg/injection, vehicle: saline) is reported as 83 % of control, the T/C (dose: 10.0 mg/kg/injection, vehicle: saline) is reported as 114 % of control and the T/C [14] is reported as 80 % of control.

`Fc1ccc(CSc2ncnc3c2ncn3C2CCCCO2)cc1` (centres undefined) was tested, and the T/C [13] was 102 % of control, the T/C (dose: 90.0 mg/kg/injection, vehicle: carboxymethylcellulose (CMC)) was 111 % of control and the T/C (dose: 360.0 mg/kg/injection, vehicle: carboxymethylcellulose (CMC)) was 57 % of control and 78 % of control. For the same molecule, the T/C (dose: 720.0 mg/kg/injection, vehicle: carboxymethylcellulose (CMC)) was 75 % of control.

In the case of `CCCCn1cnc2c(=S)nc(N)[nH]c21`, the T/C [15] is reported as 82 % of control, the T/C (dose: 7.0 mg/kg/injection, vehicle: carboxymethylcellulose (CMC)) is reported as 60 % of control and 77 % of control and the T/C [1] is reported as 50 % of control. The T/C [2] was 49 % of control.

`C1CC[N-]CC1.C1CC[N-]CC1.C1CC[N-]CC1.C1CC[N-]CC1.[Cl][Co][Cl]` was tested, and the T/C (dose: 35.0 mg/kg/injection, vehicle: saline) was 84 % of control, the T/C (dose: 55.0 mg/kg/injection, vehicle: saline) was 82 % of control and the T/C (dose: 80.0 mg/kg/injection, vehicle: saline) was 71 % of control.

For `C=CCNc1ccc(C)cc1`, the T/C (dose: 85.0 mg/kg/injection, vehicle: saline) was 64 % of control, the T/C (dose: 125.0 mg/kg/injection, vehicle: saline) was 91 % of control and the T/C (dose: 185.0 mg/kg/injection, vehicle: saline) was 78 % of control.

For `CCCCCCCCCCCC[n+]1ccc(C)cc1C`, the T/C (dose: 0.06 mg/kg/injection, vehicle: saline) was 71 % of control, the T/C (dose: 0.12 mg/kg/injection, vehicle: saline) was 75 % of control and the T/C [16] was 85 % of control.

For `CC1(C)N=C(N)N=C(N)N1c1cccc(Br)c1`, the T/C (dose: 4.4 mg/kg/injection, vehicle: carboxymethylcellulose (CMC)) was 82 % of control and the T/C (dose: 6.6 mg/kg/injection, vehicle: carboxymethylcellulose (CMC)) was 84 % of control.

For `Nc1ncnc2c1ncn2C1CCCO1` (centres undefined), the T/C [6] was 107 % of control, the T/C [10] was 107 % of control and the T/C [12] was 69 % of control.

For `O=P(N1CC1)(N1CC1)N1CC1`, the T/C (dose: 0.5 mg/kg/injection, vehicle: carboxymethylcellulose (CMC)) was 93 % of control, the T/C [15] was 65 % of control and the T/C [3] was 71 % of control. The T/C (dose: 4.0 mg/kg/injection, vehicle: carboxymethylcellulose (CMC)) was 48 % of control.

`CN(C)Nc1ncnc2nc[nH]c12` was tested, and the T/C [7] was 107 % of control and the T/C [8] was 102 % of control.

For `Oc1ccc2ccccc2c1N=Nc1ccccc1`, the T/C [6] was 102 % of control, the T/C [10] was 84 % of control and the T/C [11] was 75 % of control. For the same molecule, the T/C [12] was 72 % of control.

For `C=CC(=O)NCNC(=O)C=C`, the T/C (dose: 15.0 mg/kg/injection, vehicle: saline) was 66 % of control, the T/C (dose: 30.0 mg/kg/injection, vehicle: saline) was 119 % of control and the T/C (dose: 60.0 mg/kg/injection, vehicle: saline) was 62 % of control. For the same molecule, the T/C (dose: 120.0 mg/kg/injection, vehicle: saline) was 77 % of control.

In the case of `Cn1cnc([N+](=O)[O-])c1Sc1nc(N)nc2c1ncn2C1OC(CO)C(O)C1O` (centres undefined), the T/C [15] is reported as 124 % of control, the T/C [9] is reported as 69 % of control and the T/C [1] is reported as 88 % of control.

In the case of `COC(=O)[C@@H]1c2cc3c(c(O)c2[C@@H](OC2OC(C)C(OC)C(C)(OC)C2OC)C[C@]1(C)O)C(=O)c1c(O)cc2c(c1C3=O)O[C@H]1O[C@]2(C)[C@H](O)[C@@H](N(C)C)[C@@H]1O` (some centres undefined), the T/C [16] is reported as 103 % of control.

`O=C1C=CC(=Nc2ccc(O)c3ncccc23)c2cccnc21` was tested, and the T/C [4] was 95 % of control.
